Results on 18 compounds are retold here after ChEMBL document CHEMBL3734649, “H2O-mediated isatin spiro-epoxide ring opening with NaCN: Synthesis of novel 3-tetrazolylmethyl-3-hydroxy-oxindole hybrids and their anticancer evaluation” (Eur J Med Chem, 2015).

Each structure is given as a SMILES string.

Experiment [1] is described as follows: Anticancer activity against human PA1 cells after 48 hrs by MTT assay. Format: functional, cell-based. To be noted: PA-1, 48 h.
Experiment [2] in a line: Anticancer activity against human BT549 cells after 48 hrs by MTT assay. It is filed as functional, cell-based. To be noted: BT-549, 48 h.
The nature of experiment [3]: Anticancer activity against human PC3 cells after 48 hrs by MTT assay. It is filed as functional, cell-based. To be noted: PC-3, 48 h.
A further experiment has as its system MDA-MB-231. As to the kind of experiment: Anticancer activity against human MDA-MB-231 cells after 48 hrs by MTT assay. It is filed as functional, cell-based. The note with it: MDA-MB-231, 48 h.
Experiment [4] is described as follows: Anticancer activity against human DU145 cells after 48 hrs by MTT assay. It is filed as functional, cell-based. The note with it: DU-145, 48 h. For orientation: Formazan colour is commonly taken as a measure of viable cells.
Experiment [5] is described as follows: Cytotoxicity against human RWPE1 cells after 48 hrs by MTT assay. The note with it: RWPE-1, 48 h. It is filed as cell-based.
Experiment [6] can be described thus: Selectivity index, ratio of IC50 for human RWPE1 cells to IC50 for human DU145 cells. It is filed as functional.

By IC50 is commonly meant the concentration that gives 50% inhibition. A low value points to greater potency. For the compound `CCN1C(=O)C(O)(Cc2nnn[nH]2)c2cc(Br)ccc21` (centres undefined), the IC50 (in experiment [1]; in experiment [2]; in experiment [3]; in the experiment with MDA-MB-231; in experiment [4]) was over 100 µM in each case.
In the case of `O=C1N(Cc2ccc(Br)cc2)c2ccc(Br)cc2C1(O)Cc1nnn[nH]1` (centres undefined), the IC50 was over 100 µM in experiment [1]; 88.8 µM in experiment [2]; over 100 µM in experiment [3]; 65.4 µM in the experiment on MDA-MB-231; 59.6 µM in experiment [4].
In the case of `O=c1[nH]cc(F)c(=O)[nH]1` [FLUOROURACIL], the IC50 in experiment [1] turned out to be 7.59 µM; in experiment [2], 19.8 µM; in experiment [3], 68.3 µM; in the experiment with MDA-MB-231, 45.4 µM; in experiment [4], 39.2 µM.
For `O=C1N(Cc2ccccc2)c2ccc(F)cc2C1(O)Cc1nnn[nH]1` (centres undefined), the IC50 in experiment [1] is over 100 µM; in experiment [2], 78.7 µM; in experiment [3] it was over 100 µM; with MDA-MB-231, 27.2 µM; in experiment [4], over 100 µM.
`O=C1N(Cc2ccccc2)c2ccc(Br)cc2C1(O)Cc1nnn[nH]1` (centres undefined): the IC50 in experiment [1] is 74.4 µM; in experiment [2], 39.6 µM; in experiment [3], 75.8 µM; in the experiment with MDA-MB-231, 96.1 µM; in experiment [4], 46.2 µM.
Turning to `CCN1C(=O)C(O)(Cc2nnn[nH]2)c2cc(C)ccc21` (centres undefined), the IC50 in experiment [1] is over 100 µM; in experiment [2], over 100 µM; in experiment [5], over 100 µM; in experiment [3], over 100 µM; in the experiment with MDA-MB-231 it was over 100 µM; in experiment [4] it was 14.6 µM.
Regarding `O=C1N(Cc2ccccc2)c2ccccc2C1(O)Cc1nnn[nH]1` (centres undefined), the IC50 in experiment [1] is over 100 µM; in experiment [2] it was over 100 µM; in experiment [3] it was over 100 µM; in the experiment on MDA-MB-231 it was 74.1 µM; in experiment [4] it was over 100 µM.
Take `CCN1C(=O)C(O)(Cc2nnn[nH]2)c2cc(Cl)ccc21` (centres undefined): the IC50 was 49.5 µM in experiment [1]; 85.4 µM in experiment [2]; 79.3 µM in experiment [3]; 84.9 µM in the experiment with MDA-MB-231; 21.5 µM in experiment [4].
The corresponding values for `O=C1N(Cc2ccccc2)c2ccc(Cl)cc2C1(O)Cc1nnn[nH]1` (centres undefined) are 100 µM, over 100 µM, over 100 µM, 30.3 µM and over 100 µM.
Taken in the same sequence, the figures for `CN1C(=O)C(O)(Cc2nnn[nH]2)c2cc(Cl)ccc21` (centres undefined) were over 100 µM, over 100 µM, over 100 µM, over 100 µM and 76 µM.
For `O=C1N(Cc2ccc(Br)cc2)c2ccc(F)cc2C1(O)Cc1nnn[nH]1` (centres undefined), the IC50 in experiment [1] was over 100 µM; in experiment [2], over 100 µM; in experiment [5] it was over 100 µM; in experiment [3], over 100 µM; in the experiment with MDA-MB-231 it was over 100 µM; in experiment [4], 14.4 µM.
`CN1C(=O)C(O)(Cc2nnn[nH]2)c2cc(Br)ccc21` (centres undefined): the IC50 in experiment [1] is over 100 µM; in experiment [2], over 100 µM; in experiment [3] it was over 100 µM; in the experiment on MDA-MB-231, 67.3 µM; in experiment [4] it was over 100 µM.
As for `CN1C(=O)C(O)(Cc2nnn[nH]2)c2ccccc21` (centres undefined), the half-inhibitory concentration (IC50) in experiment [1] was 45.5 µM; in experiment [2], over 100 µM; in experiment [3] it was 44.8 µM; in the experiment with MDA-MB-231, over 100 µM; in experiment [4] it was 36.8 µM.
As for `O=C1N(Cc2ccc(Br)cc2)c2ccc(Cl)cc2C1(O)Cc1nnn[nH]1` (centres undefined), the IC50 in experiment [1] is 35.8 µM; in experiment [2], 74.5 µM; in experiment [3], 87.9 µM; in the experiment with MDA-MB-231, over 100 µM; in experiment [4], 19.5 µM.
Turning to `Cc1ccc2c(c1)C(O)(Cc1nnn[nH]1)C(=O)N2C` (centres undefined), the IC50 (in experiment [1]; in experiment [2]; in experiment [3]; in the experiment with MDA-MB-231; in experiment [4]) was over 100 µM throughout.
Regarding `CCN1C(=O)C(O)(Cc2nnn[nH]2)c2ccccc21` (centres undefined), the IC50 (in experiment [1]; in experiment [2]; in experiment [3]; with MDA-MB-231; in experiment [4]) was over 100 µM in each case.
For the compound `CN1C(=O)C(O)(Cc2nnn[nH]2)c2cc(F)ccc21` (centres undefined), the IC50 in experiment [1] is over 100 µM; in experiment [2] it was over 100 µM; in experiment [3], 38.2 µM; with MDA-MB-231, over 100 µM; in experiment [4] it was over 100 µM.
As to `O=C1N(Cc2ccc(Br)cc2)c2ccccc2C1(O)Cc1nnn[nH]1` (centres undefined), the IC50 was 38.9 µM in experiment [1]; 73.4 µM in experiment [2]; 76 µM in experiment [5]; 10.1 µM in experiment [3]; over 100 µM in the experiment with MDA-MB-231; 7.01 µM in experiment [4]. The “Ratio IC50” value in experiment [6] stood at 10.
